Legend:
[1] = system: isolated, pressured rat renal interlobular arteries; assay: Isolated vessel studies: vasoconstrictor response (vascular diameter) to cumulative doses of 20-HETE analogs; type: cell-based
Protocol: General. Experiments were performed on 10 to 12-week old male Sprague-Dawley rats purchased from Harlan Sprague-Dawley Laboratories (Indianapolis, Ind.). The rats were housed in the animal care facility at the Medical College of Wisconsin, which is approved by the American Association for the Accreditation of Laboratory Animal Care. The animals had free access to food and water. All protocols involving animals received approval by the Animal Care Committee of the Medical College of Wisconsin.
(§1) Isolated vessel studies. Interlobular arterioles (70-120 μm inner diameter) were microdissected from the kidneys of rats. The vessels were mounted on glass micropipettes in a perfusion chamber containing physiological saline solution equilibrated with a 95% O2-5% CO2 gas mixture and maintained at 37° C. The vessel were secured to the pipettes and side branches were tied off with 10-0 silk suture. The inflow pipette was connected to a pressurized reservoir to control of intraluminal perfusion pressure, which was monitored using a transducer (Cobe, Lakewood, Colo.). The vessels were stretched to in vivo length measured before microdissection. The outflow cannula was clamped off and intraluminal pressure was maintained at 90 mm Hg during the experiment. Vascular diameters were measured with a video system composed of a stereo microscope (Carl Zeiss, Inc., Germany), a CCTV television camera (KP-130AU, Hitachi, Japan), a videocassette recorder (AG-7300, Panasonic, Japan), a television monitor (CVM-1271, Sony, Japan), and a video measuring system (VIA-100, Boeckeler Instrument Co., Tucson, Ariz.).
(§2) The composition of the perfusate and the bath was (in mM): 119 NaCl, 4.7 KCl, 1.17 MgSO4, 1.6 CaCl2, 12 NaHCO3, 1.18 NaH2PO4, 0.03 EDTA and 10 glucose, pH 7.4. Indomethacin (5 μM), baicalein (0.5 μM) and 17-ODYA (1 μM) were added to the bath to block the endogenous formation and metabolism of eicosanoids via the cyclooxygenase, lipoxygenase and cytochrome P450 pathways. After the equilibration period, cumulative dose response curves were generated for each of the 20-HETE analogs.
Effect of the position of the hydroxyl group on the vasoconstrictor response to 20-HETE. These experiments examined the effects of increasing concentrations of 5(S)-, 8(S)-, 12(S)-, 15(S)-, and 19(S)-HETE on the diameter of isolated, pressured rat renal interlobular arteries. All of these analogs have the same number of carbons, double bonds and molecular weight as 20-HETE (FIG. 1). The major difference between these compounds and 20-HETE is the position of the OH group along the carbon chain. Additional experiments were performed with arachidonic acid and 20-carboxyarachidonic acid, which are structurally similar to 20-HETE but lack a hydroxyl group on the 20th carbon and 20-hydroxyeicosa-6, 15-dienoic acid (reverse 20-HETE) which has the carboxy- and hydroxy-moieties on the 1st and 20th carbons reversed. Cumulative dose response curves were generated for each compound (10^−8 to 10^−6 M) in the presence of indomethacin, baicalein, and 17-ODYA. Vascular diameters were recorded 2 to 3 minutes after the addition of the compounds to the bath.
Effect of the double bonds and carbon chain length to the vasoconstrictor response to 20-HETE. We next examined the importance of the double bonds and the length of the carbon chain to the vasoconstrictor response to 20-HETE. In these studies, the double bonds in the 20-HETE molecule were removed creating partial and saturated 20-HETE derivatives (20-hydroxyeicosa-6(Z),15(Z) dienoic acid; 20-hydroxyeicosanoic acid, FIG. 1). 20-HETE was also shortened by one carbon, creating a 19-carbon analog (19-hydroxynonadeca-5(Z),8(Z),11(Z),14(Z)-tetraenoic acid, FIG. 1) and double bonds were removed, creating a saturated 19-carbon analog (19 hydroxynonadecanoic acid, FIG. 1). […]

OK cells = conditions: 20-HETE 10^−9 M; cited from earlier work
LLC-PK1 cells = conditions: 20-HETE 10^−9 M; cited from earlier work
[2] = system: vascular smooth muscle cells; conditions: read-out: EC50 as constrictor; cited from earlier work
[3] = system: renal, cerebral and skeletal muscle arterioles; conditions: read-out: EC50 as constrictor; cited from earlier work
[4] = system: vasoconstrictor response to 20-HETE in isolated renal interlobular arteries; assay: 20-HETE antagonist activity: dose response curves to 20-HETE before and after addition of analog; type: cell-based, rat; conditions: analog 0.5 or 1 μM in bath, 20-HETE 10^−8 to 10^−6 M
Protocol: We also disclose below a test for 20-HETE antagonist activity. In this analysis, test compounds were analyzed by a cumulative dose response curve to 20-HETE generated before and after the addition of the test compound. […] We envision suitable antagonists as similarly blocking the vasoconstrictor response.
as §1, §2
20-HETE antagonist activity. […] In these experiments, cumulative dose response curves to 20-HETE (10^−8 to 10^−6 M) were generated before and after addition of 5(S)-HETE (0.5 μM), 8(S)-HETE (1 μM), 12(S)-HETE (0.5 μM), 15(S)-HETE (1 μM), 19(S)-HETE (1 μM), the C19-analog (1 μM), arachidonic acid (1 μM), 20-carboxy-arachidonic acid (1 μM), reverse 20-HETE (1 μM), saturated 20-HETE (1 μM), and the saturated C19-analog (1 μM) to the bath. Vascular diameters were recorded 2 to 3 minutes after the addition of each dose of 20-HETE to the bath.

Row | Structure (SMILES) | threshold concentration that reduced vascular diameter ([1]; renal interlobular arterioles) | growth of cultured cells (OK cells) | growth of cultured cells (LLC-PK1 cells) | EC50 [2] | EC50 [3] | effect on the diameter of renal interlobular arteries (vasoconstrictor/agonist activity) ([1]; 10^−8 to 10^−6 M (up to 1 μM), indomethacin, baicalein, 17-ODYA present, diameter 2 to 3 minutes after addition) | effect of analog on the vasoconstrictor response to 20-HETE (antagonist activity) [4] | effect of analog on the vasoconstrictor response to 20-HETE (antagonist activity) ([4]; listed as saturated C20-analog) | melting point
1 | O=C(O)CCC/C=C\C/C=C\C/C=C\C/C=C\CCCCCO [20-HETE, 20-hydroxyeicosatetraenoic acid] | 10 nM | promotes the growth | promotes the growth | < 10 nM | < 10 nM |  |  |  | 
2 | O=C(O)CCCCCCCCCCCCCCCCCCCO [saturated 20-HETE derivative, 20-Hydroxyeicosanoic Acid] |  |  |  |  |  | no effect | exhibited competitive antagonist activity | not as effective as the parent compounds | 86 °C

— US6605641B2, “20-HETE antagonists and agonists” (MCW Research Foundation, priority 1998, dated 2003)
